Measurements: patent US20040110676A1, “Methods for modulating cell survival” (priority 2000, published 2004)

Assays:
[1] = Retrospective analysis of tumor development in transgenic mouse colony; assay type: in vivo, mice
Protocol: A retrospective analysis was performed to examine the total numbers of mice (identified by the animal colony health staff) that developed tumors in the colony of transgenic mice. The records of all mice diagnosed with tumors over a 6 month period were examined, in a group of mice over-expressing wild-type human htt and their wild-type littermates. […] The average age of tumor development was younger in the transgenic group 13.8 months compared to 17.1 months for wild-type littermates. The majority of identified tumors in male mice were testicular tumors.

NIH3T3 cells [2] = assay: Soft agar colony formation and transformation of retrovirally transfected cells; assay type: cell-based
Protocol: Retroviral introduction of the S421 mutants into NIH3T3 cells was used to examine the oncogenic (proliferative) effects of phosphorylation on serine 421. […] To test the oncogenic potential of htt and to examine the effect of phosphorylation of htt at S421 on cell proliferation, a soft agar assay was conducted in NIH3T3 cells (FIG. 21). […] Mutant htt (HD138) transfection leads to no (0%) soft agar colonies.

hippocampal neurons = assay: Kainic acid-induced seizure neurodegeneration in YAC transgenic mice; assay type: in vivo
Protocol: Yeast artificial chromosome (YAC) transgenic mice were generated that over-express wild-type human htt at 2-3 times the levels of endogenous htt in wild-type mice (FVB/NJ) (Hodgson et al.(1996) Hum. Mol. Genet. 5, 1875-1885). Fifteen of these transgenic and 23 control FVB/NJ mice 4-8 months of age each received a single intraperitoneal injection of 25 mg/kg kainic acid (KA) or an equal volume of vehicle (PBS). Intraperitoneal injections of kainic acid injections cause prolonged seizures in mice, and each mouse was observed continuously for two hours following injection. The occurrence, severity, and duration of seizures was recorded.
(§1) One week following KA injection, brains were removed from one group of the mice and immediately frozen in isopentene on dry ice. Serial 30 μm coronal cryostat sections were cut through the entire hippocampus. After every fifth section, two sections were removed for quantitative analysis and fixed in 3% paraformaldehyde for 30 minutes in preparation for histochemical staining. Degenerating neurons were identified in hippocampal sections by Fluoro-Jade™ histochemistry (Histo-Chem Inc.), silver staining (FD Neurotechnologies) and by TUNEL™ (Boehringer Mannheim). Fluoro-Jade™ is a fluorescent stain that labels degenerating neurons in fixed brain sections. The total number of degenerated hippocampal neurons labeled with Fluoro-Jade™ was recorded from the CA1, CA3, and total hippocampus regions of each section selected for quantitative analysis. Slide-mounted sections were viewed with a Zeiss (Axiovert) fluorescent microscope, digital photomicrographs were captured with a cooled CCD camera (Princeton), and degenerating hippocampal neurons manually counted in a blinded fashion. To assess the role of caspase activation in this process, the hippocampus and cerebellum were removed from a second group of animals 8 hours following KA-induced seizures. Caspase activity was measured in homogenized hippocampal and cerebellar samples using the fluorogenic substrate acetylated DEVD aminofluorocoumarin. DEVD-ase activity was standardized to protein content as determined by standard Lowry analysis.

NIH/3T3 cells = assay: Anoikis assay on poly-HEMA coated plates, annexin-V-FITC/PI; assay type: cell-based, murine; settings: detached, 8 hours, p<0.05 vs parental cells
Description: Using the murine transformed fibroblast cell line, NIH/3T3, the anoikis-resistance properties of wild type htt (15 glutamine repeat) and mutant htt (138 glutamine repeat) were investigated. NIH/3T3 cells require a matrix for attachment in order to experience optimum growing conditions. When detached from the supporting matrix, they experience a high rate of apoptosis. NIH/3T3 cells were transfected with a mammalian expression vector containing wild type htt (15 glutamine repeat) or mutant htt (138 glutamine repeat). Untransfected and transfected NIH/3T3 cells were grown on cell culture plates, whose plastic surface served as a substrate for matrix deposition and subsequent cellular attachment, or on poly-HEMA coated cell culture plates. The nonionic nature of poly-HEMA inhibits both matrix deposition and subsequent cell attachment. […] The cells were cultured in DMEM with 10% serum for 8 hours under attached conditions on plastic plates or under detached conditions on poly-HEMA-coated plastic plates. Cells were harvested, counted and viability was assessed via annexin-V-FITC and propidium iodide (PI) staining.

NIH3T3 cells [3] = assay: Cellular proliferation after transient transfection, colorometric assay of cell number; assay type: cell-based
Protocol: The ability of NIH3T3 cells to overcome contact inhibition when transfected with different gene constructs has been used for many years to assess oncogenic potential of certain genes and to identify potential oncogenes. Cellular proliferation was assessed following transient transfections of NIH3T3 cells using a standardised colorometric assay of cell number. The effect of htt on cellular growth was examined and compared to the effect of a known oncogene, ras (FIG. 17). NIH3T3 cells transfected with htt constructs show a significant increase in cellular proliferation (5-6 fold increase in proliferation compared to control vector) that is similar to the effect of ras.

[4] = tested on: DEVD-ase activity (caspase-2, -3, -7); assay: DEVD-ase (caspase) activity after kainic acid-induced seizures; assay type: in vivo, mice; settings: 8 hours after KA-induced seizures
Protocol: as §1, with “To assess the role of caspase activation in this process, the hippocampus and cerebellum were removed from a second group of animals 8 hours following KA-induced seizures.” left out

[5] = Body weight of transgenic mice over-expressing wild-type htt; assay type: in vivo; settings: transgenic mice aged 5-8 months over-expressing wild-type htt
Description: One of the roles of the pro-survival (e.g. anti-apoptotic) function of wild-type htt may be in control of tissue mass and cellular proliferation. Increased levels of wild-type htt expression can lead to increased body tissue mass and may predispose mice to the development of tumors. The effect of over-expression of human wild-type htt on the body weight of transgenic mice was compared to wild-type mice (FIG. 16). […] The average body weight was approximately 25% greater for the transgenic mice compared to wild-type. […] Over production of cells in the body can have a variety of unwanted outcomes including but not limited to obesity or cancer. This may be due to decreased naturally occurring apoptosis or increased cellular proliferation.

Substance: wild-type htt: wild-type human huntingtin protein, polyglutamine tract of less than 35 glutamines; over-expressed in YAC line 212 mice or transfected (15 glutamine repeat)
- mice identified with tumors that were transgenic ([1]; 6 month period, 38/45): 84.5%
- average age of tumor development ([1]; transgenic group, wild-type littermates 17.1 months): 13.8 months
- soft agar colonies (NIH3T3 cells [2]; retrovirally transfected NIH3T3 cells, control cells about 5%): about 15%
- increase in number of colonies over control cells (NIH3T3 cells [2]; soft agar, NIH3T3 cells): 3 fold
- morphologic transformation (NIH3T3 cells [2]; stable retroviral transfection of NIH3T3 cells): malignant, morphologic transformation
- average number of degenerating neurons per animal (Fluoro-Jade) (hippocampal neurons; CA1 region, 25 mg/kg KA i.p., one week, control 2360): 3
- average number of degenerating neurons per animal (Fluoro-Jade) (hippocampal neurons; CA3 region, 25 mg/kg KA i.p., one week, control 2003): 79
- fold less degenerating hippocampal neurons than control animals (hippocampal neurons; after KA-induced seizures): approximately 50 fold
- TUNEL labeled apoptotic hippocampal neurons (hippocampal neurons; after KA-induced seizures, transgenic mice): few apoptotic hippocampal neurons
- argyrophyllic labelling of neuronal soma (silver staining) (hippocampal neurons; hippocampal sections after KA-induced seizures, transgenic vs wild-type mice): dramatically reduced
- average number of degenerating hippocampal neurons per animal (Fluoro-Jade) (hippocampal neurons; total hippocampus, mice expressing 2-3 times endogenous htt levels, 25 mg/kg KA i.p., one week, control 4362): 81
- protection from cell death induced by anoikis (NIH/3T3 cells): Protection from cell death induced by anoikis
- increase in proliferation compared to control vector (NIH3T3 cells [3]): 5-6 fold
- cerebellar caspase activation (DEVD-ase activity) ([4]; cerebellum, wild-type mice 8.68 +/−1.67, no significant difference): 13.66 +/−2.32
- hippocampal caspase activation (DEVD-ase activity) ([4]; hippocampus, wild-type mice 20.8 +/−1.77, P=0.02): 14.5 +/−1.49
- average body weight greater than wild-type mice [5]: approximately 25%
